This is an account of results in US9371290B2, “Pyridazinone compounds” (BIOTIE THERAPIES CORPORATION, priority 2011, dated 2016).

Compound `CN1CCN(c2cc(=O)n(-c3ccccc3)nc2C(N)=O)CC1.Cl` gave a melting point of 248 to 250 °C.
To `O=c1cc(Oc2ccccc2)c(-c2cccnc2)nn1-c1ccccc1` [Compound 9] belongs 155 to 157 °C; to `O=c1cc(Oc2ccccc2)c(-c2cn[nH]c2)nn1-c1ccccc1` [Compound 30], 245 to 247 °C; to `O=c1cc(Oc2ccc(Cl)cc2)c(-c2nc[nH]n2)nn1-c1ccccc1` [Compound 15], 235 to 240 °C.
As for `N#CCNc1cc(=O)n(-c2ccc(Cl)cc2)nc1-c1nc[nH]n1` [Compound 79], the figure is 303 to 306 °C.
To `COc1cc(=O)n(-c2ccccc2)nc1-c1nc[nH]n1` [Compound 31] belongs 235 to 240 °C; to `CN1CCC(Nc2cc(=O)n(-c3ccc(Cl)cc3)nc2-c2nc[nH]n2)CC1` [Compound 67], 270 to 272 °C; to `O=c1cc(Nc2ccncc2)c(-c2nc[nH]n2)nn1-c1ccccc1` [Compound 53], 342 to 344 °C.
`O=c1cc(Nc2ccccc2)c(-c2nc[nH]n2)nn1-c1ccccc1` [Compound 40] yielded a melting point of 287 to 290 °C.
As for `C#CCN(C)c1cc(=O)n(-c2ccc(Cl)cc2)nc1-c1nc[nH]n1` [Compound 82], the figure is 210 to 212 °C; as for `Nc1ccc(Nc2cc(=O)n(-c3ccc(Cl)cc3)nc2-c2nc[nH]n2)cc1` [Compound 66], 278 to 281 °C; as for `CCCc1cn(-c2cc(=O)n(-c3ccccc3)nc2C(=O)OC)nn1` [Compound 24], 146 to 148 °C.
To `O=c1cc(Oc2ccccc2)c(-c2ccco2)nn1-c1ccccc1` [Compound 18] belongs 232 to 234 °C; to `O=c1cc(Oc2ccccc2)c(-c2nc[nH]n2)nn1-c1ccccc1F` [Compound 45], 265 to 267 °C; to `CCCc1cn(-c2cc(=O)n(-c3ccccc3)nc2C#N)nn1` [Compound 32, 6-oxo-1-phenyl-4-(4-propyl-1H-1,2,3-triazol-1-yl)-1,6-dihydropyridazine-3-carbonitrile], 192 to 195 °C.
As for `O=c1cc(Oc2ccccc2)c(-c2nc[nH]n2)nn1-c1cccc(C(F)(F)F)c1` [Compound 33], the melting point lay within 257 to 258 °C.
`Cc1ccsc1-c1nn(-c2ccccc2)c(=O)cc1Oc1ccccc1` [Compound 20] registered a melting point of 212 to 214 °C.
As for `Cn1nccc1-c1nn(-c2ccccc2)c(=O)cc1Oc1ccccc1` [Compound 1], the figure is 118 to 119 °C.
As for `COc1ccc(Nc2cc(=O)n(-c3ccc(Cl)cc3)nc2-c2nc[nH]n2)cc1OC` [Compound 60], the figure is 227 to 230 °C; as for `Cc1nc(-c2nn(-c3ccccc3)c(=O)cc2Oc2ccccc2)n[nH]1` [Compound 51, 5-phenoxy-2-phenyl-6-(5-methyl-1H-1,2,4-triazol-3-yl)-3(2H)-pyridazinone], 245 to 247 °C.
To `NNC(=O)c1nn(-c2ccccc2)c(=O)cc1Oc1ccccc1` [Compound 76] belongs 80 to 82 °C.
Regarding `COC(=O)c1nn(-c2ccccc2)c(=O)cc1-n1cc(-c2ccccc2)nn1` [Compound 6], the melting point is 240 to 248 °C.
To `Cn1cnc(-c2nn(-c3ccccc3)c(=O)cc2Oc2ccccc2)n1` [Compound 41] belongs 235 to 237 °C; to `O=c1cc(Oc2ccccc2)c(-c2cccc(C(F)(F)F)c2)nn1-c1ccccc1` [Compound 21, 5-phenoxy-2-phenyl-6-[(3-trifluoromethyl)phenyl]pyridazin-3(2H)-one], 146 to 148 °C.
As for `CN(C)/C=N/C(=O)c1nn(-c2ccccc2)c(=O)cc1Oc1ccccc1` [Compound 23, N,N-dimethyl-N′-[(6-oxo-4-phenoxy-1-phenyl-1,6-dihydropyridazin-3-yl)carbonyl]formamidine], the figure is 175 to 176 °C.
`COc1ccc(-n2nc(-c3nc[nH]n3)c(Oc3ccccc3)cc2=O)cc1` [Compound 26] had a melting point of 284 to 286 °C.
As for `CC(C)Nc1cc(=O)n(-c2ccccc2)cc1-c1nc[nH]n1` [Compound 54, 4-isopropylamino-1-phenyl-5-(1H-1,2,4-triazol-3-yl)-pyridin-2(1H)-one], the figure is 307 to 310 °C.
As for `O=c1cc(Nc2ccccc2)c(-c2nc[nH]n2)nn1-c1ccc(Cl)cc1` [Compound 64], the figure is 244 to 246 °C; as for `Cc1noc(C)c1-c1nn(-c2ccccc2)c(=O)cc1Oc1ccccc1` [Compound 19], 122 to 124 °C; as for `CN(C)CCNC(=O)c1nn(-c2ccccc2)c(=O)cc1Oc1ccccc1.Cl`, 138 to 141 °C.
The compound `CCOC(=O)c1cn(-c2cc(=O)n(-c3ccccc3)nc2C(=O)OC)nn1` [Compound 7] returned a melting point of 165 to 170 °C.
Compound `[N-]=[N+]=Nc1cc(=O)n(-c2ccccc2)nc1C1=NCCN1` [Compound 47, 5-Azido-6-(4,5-dihydro-1H-imidazol-2-yl)-2-phenylpyridazin-3(2H)-one] had a melting point of 238 to 240 °C.
As for `O=c1cc(Nc2ccccc2)c(-c2nc[nH]n2)nn1-c1cccc(F)c1` [Compound 69], the figure is 233 to 235 °C.
To `O=c1cc(O)c(-c2nc[nH]n2)nn1-c1ccccc1` [Compound 3] belongs 218 to 220 °C; to `CN(C)c1ccc(Nc2cc(=O)n(-c3cccc(Cl)c3)nc2-c2nc[nH]n2)cc1` [Compound 72], 243 to 245 °C.
As to `N=CNNC(=O)c1nn(-c2ccccc2)c(=O)cc1Sc1ccccc1` [Compound 8, N^2-iminomethyl-6-oxo-4-phenylsulfanyl-1-phenyl-1,6-dihydropyridazin-3-carbohydrazide], the melting point was in the range of 236 to 238 °C.
The compound `O=c1cc(N2CCCC2)c(-c2nc[nH]n2)nn1-c1ccccc1` [Compound 44] came in with a melting point of 301 to 303 °C.
The compound `O=c1cc(Nc2ccc(N3CCNCC3)cc2)c(-c2nc[nH]n2)nn1-c1ccc(Cl)cc1` [Compound 80, 2-(4-chlorophenyl)-5-{[4-(4-piperazine-1-yl)phenyl]amino}-6-(1H-1,2,4-triazol-3-yl)-3(2H)-pyridazinone] had a melting point of 212 to 224 °C.

By melting point is commonly meant the temperature of the solid-liquid transition.
